These results are taken from patent EP2949653A1, “ISOXAZOLE DERIVATIVES AS LEUKOTRIENE BIOSYNTHESIS INHIBITORS” (Banoglu, Erden, priority 2014, dated 2015).

Assay [1] relates to 5-LO mediated product formation. The assay can be described thus: 5-LO mediated product formation in intact neutrophils stimulated with A23187 (cell-based). Further details: species or system human. To be noted: for activity at 1 µM / activity at 10 µM: PMNL, human neutrophils, 2.5 µM A23187, means ± SE, n = 3-6; for activity at 1 µM: remaining activity at 1 µM inhibitor, read-out: 5-LO mediated product formation in intact neutrophils (PMNL) (% of control) at 1 µM; for activity at 10 µM: remaining activity at 10 µM inhibitor, read-out: 5-LO mediated product formation in intact neutrophils (PMNL) (% of control) at 10 µM; for IC50: Neutrophil, intact human neutrophils stimulated with 2.5 µM A23187, mean ± SE, n = 3-4, read-out: Inhibition of purified 5-LO activity IC50 (µM) cell based. The protocol: (§1) Cell based and cell-free assays carried out in biological studies, immunofluorescence microscopy analysis and zymosan-induced peritonitis in mice are performed as described hereinabove (Pegola, C. and et al., British J. Pharmacology, 2014, D01:10.1111/bph.12625). In the cell based assays (intact neutrophils or monocytes), 5-LO mediated product formation is started, after pre-incubation with test compounds (or control DMSO) for 15 min. at 37 °C, with addition of Ca-ionophore A23187 (2.5 µM) to the fresh 5 x 10^6 neutrophils or monocytes suspended in 1 ml of PGC buffer (phosphate buffered saline (PBS) solution containing 1 mg ml^-1 glucose and 1mM CaCl2, pH 7.4). After the incubation for 10 min. at 37 °C, the reaction is ended with addition of 1 ml of methanol, and 30 µL 1 N HCl, 200 ng prostaglandin B1 and 500 µL PBS are added to the mixture. In cell-free assays (isolated 5-LO and cell homogenates), human recombinant 5-LO protein or 40,000g supernatant is added to 1 ml of 5-LO reaction mixture (PBS, pH 7.4, 1 mM EDTA, 1 mM ATP), and then incubated with test compounds (or control DMSO) for 10 min. at 4°C, heated to 37 °C and 2 mM CaCl2 as well as AA at certain concentrations are added. The reaction is ended as described for the cell-based assays. Resulting 5-LO mediated products are extracted and analysed by the known method of high pressure liquid chromatography (HPLC) (Pergola, C. Proc Natl. Acad. Sci. U.S.A. 2008, 105, 19881). 5-LO mediated product formation (LTB4 and all trans isomers, and 5 (S)-hydro(pero)xy-6-trans-8, 11, 14-cis-eicosatetraenoic acid, 5-H(p)ETE) is expressed as ng per 10^6 cell. Cysteinyl-LTs have not been analyzed because that the amount of C4, D4 and E4 and LTB4 oxidation products are below the detection limit.
(§2) Compounds were tested in intact human neutrophils stimulated with 2.5 µM A23187 under cell based conditions and on purified 5-LO under cell free conditions. ^aData are given as remaining activity as a percentage of control (100%) at 10 µM or 1 µM inhibitor concentrations (means ± SE, n = 3-6).
Compound 9hj inhibited 5-LO mediated product formation with IC50 of 60 nM in human neutrophils. Neutrophils are stimulated with Ca-ionophore A23187 (2.5 µM), without the addition of exogenous arachidonic acid (AA), after pre-incubation with 9hj or vehicle (0.1 % DMSO). 100% controls correspond to 275.7 ng mL^-1 of 5-LO mediated products (Figure 1).
100% controls correspond to 328.97 ng mL^-1 of 5-LO mediated products.

The target in assay [2] is T1, purified 5-LO (Homo sapiens, UniProt P09917).
T1 sequence (P09917 1-674): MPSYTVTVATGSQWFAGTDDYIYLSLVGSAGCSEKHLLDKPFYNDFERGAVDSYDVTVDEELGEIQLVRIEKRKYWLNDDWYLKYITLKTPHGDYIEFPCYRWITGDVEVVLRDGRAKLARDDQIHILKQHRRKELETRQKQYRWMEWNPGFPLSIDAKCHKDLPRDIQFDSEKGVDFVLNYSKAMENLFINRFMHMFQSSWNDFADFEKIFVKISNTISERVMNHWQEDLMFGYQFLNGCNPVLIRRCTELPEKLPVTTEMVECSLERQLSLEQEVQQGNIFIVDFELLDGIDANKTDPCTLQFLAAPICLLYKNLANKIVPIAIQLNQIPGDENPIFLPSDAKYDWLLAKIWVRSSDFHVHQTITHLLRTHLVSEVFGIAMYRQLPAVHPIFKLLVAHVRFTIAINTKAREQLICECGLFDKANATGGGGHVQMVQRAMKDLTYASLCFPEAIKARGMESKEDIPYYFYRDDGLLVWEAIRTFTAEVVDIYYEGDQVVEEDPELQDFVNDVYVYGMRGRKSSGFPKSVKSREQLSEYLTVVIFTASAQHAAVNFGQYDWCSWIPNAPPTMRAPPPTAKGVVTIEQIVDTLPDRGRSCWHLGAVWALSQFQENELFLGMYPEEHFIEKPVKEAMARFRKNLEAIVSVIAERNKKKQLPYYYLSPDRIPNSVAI
The assay can be described thus: Purified / human recombinant 5-LO activity (cell-free). The class given is biochemical. To be noted: purified 5-LO under cell free conditions; mean ± SE, n = 3-4; read-out: Inhibition of purified 5-LO activity IC50 (µM) cell-free. On the procedure: as §1, §2
9hj was added 15 min before addition of 2 mM Ca^2+ plus 3 µM, 10 µM and 30 µM AA. 100% controls correspond to 200.35 ng mL^-1 for 3 µM AA, 514.36 ng mL^-1 for 10 µM AA and 537.73 ng mL^-1 for 30 µM AA.

Assay [3] addresses T1, purified 5-LO. Described as above. The class given is biochemical. The note with it: remaining 5-LO activity (percentage of uninhibited control) at 30 µM test compound.

Consider `CCOC(=O)c1noc(-c2ccc(OCc3ccccc3C)cc2)c1-c1ccc(Cl)cc1` [Compound 7aj, Ethyl 4-(4-chlorophenyl)-5-(4-((2-methylbenzyl)oxy)phenyl)isoxazole-3-carboxylate], for which, in assay [1], the activity at 1 µM was found to be 85.2 ± 0.7% and the activity at 10 µM was 71.9 ± 10.3%.

In the case of `CCOC(=O)c1noc(-c2ccc(OCc3cccc(F)c3)cc2)c1-c1ccc(Cl)cc1` [Compound 7bj, Ethyl 4-(4-chlorophenyl)-5-(4-((3-fluorobenzyl)oxy)phenyl)isoxazole-3-carboxylate], in assay [1], the activity at 1 µM came out at 66.1 ± 14.3% and the activity at 10 µM was 55.3 ± 12.1%.

For the compound `CCOC(=O)c1noc(-c2ccc(OCc3ccc(C)cc3)cc2)c1-c1ccc(Cl)cc1` [Compound 7cj, Ethyl 4-(4-chlorophenyl)-5-(4-((4-methylbenzyl)oxy)phenyl)isoxazole-3-carboxylate], in assay [1], the activity at 1 µM was determined as 78.3 ± 16.2% and the activity at 10 µM was determined as 61.4 ± 12.4%.

`CCOC(=O)c1noc(-c2ccc(OCc3ccccc3C)cc2)c1-c1cccc(Cl)c1` [Compound 8aj, Ethyl 4-(3-chlorophenyl)-5-(4-((2-methylbenzyl)oxy)phenyl)isoxazole-3-carboxylate]: in assay [1], the activity at 1 µM amounted to 88 ± 10.2% and the activity at 10 µM amounted to 83.4 ± 16.2%.

For `CCOC(=O)c1noc(-c2ccc(OCc3cccc(F)c3)cc2)c1-c1cccc(Cl)c1` [Compound 8bj, Ethyl 4-(3-chlorophenyl)-5-(4-((3-fluorobenzyl)oxy)phenyl)isoxazole-3-carboxylate], in assay [1], the activity at 1 µM worked out at 90.6 ± 11.5% and the activity at 10 µM was found to be 80.8 ± 11.8%.

With `Cc1ccccc1COc1ccc(-c2onc(C(=O)O)c2-c2ccc(Cl)cc2)cc1` [Compound 9aj, 4-(4-Chlorophenyl)-5-(4-((2-methylbenzyl)oxy)phenyl)isoxazole-3-carboxylic acid], in assay [1], the IC50 worked out at 1.7 ± 0.47 µM, the activity at 1 µM stood at 74.5 ± 8.6% and the activity at 10 µM was 13.1 ± 3.9%. Besides, the IC50 on purified 5-LO [2] turned out to be 0.48 ± 0.03 µM.

`O=C(O)c1noc(-c2ccc(OCc3cccc(F)c3)cc2)c1-c1ccc(Cl)cc1` [Compound 9bj, 4-(4-Chlorophenyl)-5-(4-((3-fluorobenzyl)oxy)phenyl)isoxazole-3-carboxylic acid]: in assay [1], the IC50 came to 1.29 ± 0.61 µM, the activity at 1 µM came to 52.3 ± 8.3% and the activity at 10 µM worked out at 19.6 ± 9.5%. Moreover, on purified 5-LO [2], the IC50 stood at 0.38 ± 0.04 µM.

In the case of `Cc1ccc(COc2ccc(-c3onc(C(=O)O)c3-c3ccc(Cl)cc3)cc2)cc1` [Compound 9cj, 4-(4-Chlorophenyl)-5-(4-((4-methylbenzyl)oxy)phenyl)isoxazole-3-carboxylic acid], in assay [1], the IC50 came out at 1.4 ± 0.09 µM, the activity at 1 µM turned out to be 55.8 ± 4.31% and the activity at 10 µM is 15.7 ± 4.53%. For the same compound, the IC50 at purified 5-LO [2] amounted to 5.94 ± 0.36 µM.

On to `Cc1ccc(COc2ccc(-c3onc(C(=O)O)c3-c3ccc(Cl)cc3)c(C)c2)cc1` [Compound 9ck, 4-(4-Chlorophenyl)-5-(2-methyl-4-((4-methylbenzyl)oxy)phenyl)isoxazole-3-carboxylic acid], for which the remaining activity at 30 µM on purified 5-LO [3] came to 53%. In assay [1], the IC50 amounted to 1.2 ± 0.11 µM, the activity at 1 µM is 51 ± 6.68% and the activity at 10 µM turned out to be 2.26 ± 1.86%. Also, the IC50 on purified 5-LO [2] is over 30 µM.

As for `N#Cc1cccc(COc2ccc(-c3onc(C(=O)O)c3-c3ccc(Cl)cc3)cc2)c1` [Compound 9dj, 4-(4-Chlorophenyl)-5-(4-((3-cyanobenzyl)oxy)phenyl)isoxazole-3-carboxylic acid], in assay [1], the IC50 was determined as 4.13 ± 0.33 µM, the activity at 1 µM was 70 ± 9.14% and the activity at 10 µM amounted to 6.91 ± 3.92%. Further, the IC50 at purified 5-LO [2] came out at 16.3 ± 5.95 µM.

In the case of `Cc1cc(OCc2cccc(C#N)c2)ccc1-c1onc(C(=O)O)c1-c1ccc(Cl)cc1` [Compound 9dk, 4-(4-Chlorophenyl)-5-(4-((3-cyanobenzyl)oxy)-2-methylphenyl)isoxazole-3-carboxylic acid], in assay [1], the IC50 was 2.36 ± 0.32 µM, the activity at 1 µM is 77.4 ± 13.2% and the activity at 10 µM was determined as 0.42 ± 0.21%. For the same compound, the IC50 on purified 5-LO [2] came out at 5.01 ± 1.38 µM.

As for `O=C(O)c1noc(-c2ccc(OCc3ccccc3Cl)cc2)c1-c1ccc(Cl)cc1` [Compound 9ej, 5-(4-((2-chlorobenzyl)oxy)phenyl)-4-(4-chlorophenyl)isoxazole-3-carboxylic acid], in assay [1], the IC50 was found to be 1.2 ± 0.23 µM, the activity at 1 µM stood at 65.7 ± 5.9% and the activity at 10 µM came to 5.1 ± 1.46%. The IC50 on purified 5-LO [2] was 6.11 ± 0.9 µM.

Take `O=C(O)c1noc(-c2ccc(OCc3ccccc3C(F)(F)F)cc2)c1-c1ccc(Cl)cc1` [Compound 9fj, 4-(4-Chlorophenyl)-5-(4-((2-(trifluoromethyl)benzyl)oxy)phenyl)isoxazole-3-carboxylic acid]: in assay [1], the IC50 turned out to be 0.77 ± 0.19 µM, the activity at 1 µM turned out to be 52.8 ± 5.94% and the activity at 10 µM worked out at 5.5 ± 2.21%. Also, the IC50 at purified 5-LO [2] came to 6.04 ± 0.72 µM.

Consider `O=C(O)c1noc(-c2ccc(OCc3ccccn3)cc2)c1-c1ccc(Cl)cc1` [Compound 9gj, 4-(4-Chlorophenyl)-5-(4-(pyridin-2-ylmethoxy)phenyl)isoxazole-3-carboxylic acid], for which, in assay [1], the IC50 came out at 4.09 ± 0.12 µM, the activity at 1 µM was determined as 82.1 ± 15.2% and the activity at 10 µM came out at 21.3 ± 8.34%. The IC50 on purified 5-LO [2] turned out to be 7.39 ± 2.45 µM.

For the compound `Cc1ccccc1COc1ccc(-c2onc(C(=O)O)c2-c2cccc(Cl)c2)cc1` [Compound 10aj, 4-(3-Chlorophenyl)-5-(4-((2-methylbenzyl)oxy)phenyl)isoxazole-3-carboxylic acid], in assay [1], the IC50 was determined as 2.08 ± 0.33 µM, the activity at 1 µM worked out at 84.5 ± 9.1% and the activity at 10 µM was 0.7 ± 0.7%. Besides, the IC50 at purified 5-LO [2] was found to be 0.5 ± 0.03 µM.

As for `O=C(O)c1noc(-c2ccc(OCc3cccc(F)c3)cc2)c1-c1cccc(Cl)c1` [Compound 10bj, 4-(3-Chlorophenyl)-5-(4-((3-fluorobenzyl)oxy)phenyl)isoxazole-3-carboxylic acid], in assay [1], the IC50 worked out at 1.64 ± 0.11 µM, the activity at 1 µM came to 66.7 ± 8.5% and the activity at 10 µM came to 8.4 ± 5.1%. In addition, the IC50 on purified 5-LO [2] stood at 0.38 ± 0.03 µM.

Regarding `Cc1cc(OCc2cccc(F)c2)ccc1-c1onc(C(=O)O)c1-c1cccc(Cl)c1` [Compound 10bk, 4-(3-Chlorophenyl)-5-(4-((3-fluorobenzyl)oxy)-2-methylphenyl)isoxazole-3-carboxylic acid], in assay [1], the IC50 stood at 0.82 ± 0.19 µM, the activity at 1 µM came to 48.6 ± 7.9% and the activity at 10 µM stood at 9.8 ± 3.6%. For the same compound, the IC50 on purified 5-LO [2] was determined as 1.12 ± 0.14 µM.

What is called IC50 is the midpoint of a concentration-inhibition curve. By remaining activity is commonly meant what remains of the control signal, in per cent.
